# According to ChEMBL document CHEMBL1121609, “Peptide sweeteners. 4. Hydroxy and methoxy substitution of the aromatic ring in L-aspartyl-L-phenylalanine methyl ester. Structure-taste relationships” (J Med Chem, 1980):
# Non-standard residues stand in square brackets, D forms with d. Residues, ends and D or L forms follow the SMILES beside them. ξ: configuration not given here. Tyr(3-OMe) = COc1cc(C[C@H](N)C(=O)O)ccc1O; Phe(3-OMe) = COc1cccc(C[C@H](N)C(=O)O)c1; Dopa = N[C@@H](Cc1ccc(O)c(O)c1)C(=O)O; ξPhe(3-OMe) = COc1cccc(CC(N)C(=O)O)c1; mTyr = N[C@@H](Cc1cccc(O)c1)C(=O)O; ξmTyr = NC(Cc1cccc(O)c1)C(=O)O; ξY = NC(Cc1ccc(O)cc1)C(=O)O; ξD = NC(CC(=O)O)C(=O)O
# Assay: Determined to achieve reproducible taste; + indicates ~ 1-5 times as sweet as sucrose
row,Taste,Structure (SMILES)
1,~ 1-5 times as sweet as sucrose,COC(=O)[C@H](Cc1ccc(OC)cc1)NC(=O)[C@@H](N)CC(=O)O (H-Asp-Tyr(Me)-OMe)

# Assay: Determined to achieve reproducible taste; + indicates ~1-5 times as sweet as sucrose
row,Taste,Structure (SMILES)
1,~1-5 times as sweet as sucrose,COC(=O)[C@H](Cc1ccc(O)c(OC)c1)NC(=O)C(N)CC(=O)O (stereo partly specified) (H-[ξD]-[Tyr(3-OMe)]-OMe)
2,~1-5 times as sweet as sucrose,COC(=O)[C@H](Cc1ccc(O)c(O)c1)NC(=O)[C@@H](N)CC(=O)O (H-Asp-[Dopa]-OMe)

# Assay: Determined to achieve reproducible taste; ++ indicates ~10-40 times as sweet as sucrose
row,Taste,Structure (SMILES)
1,~10-40 times as sweet as sucrose,COC(=O)C(Cc1cccc(O)c1)NC(=O)[C@@H](N)CC(=O)O (stereo partly specified) (H-Asp-[ξmTyr]-OMe)
2,~10-40 times as sweet as sucrose,COC(=O)C(Cc1ccc(O)cc1)NC(=O)[C@@H](N)CC(=O)O (stereo partly specified) (H-Asp-[ξY]-OMe)
3,~10-40 times as sweet as sucrose,COC(=O)[C@H](Cc1cccc(O)c1)NC(=O)[C@@H](N)CC(=O)O (H-Asp-[mTyr]-OMe)
4,~10-40 times as sweet as sucrose,COC(=O)[C@H](Cc1ccc(O)cc1)NC(=O)[C@@H](N)CC(=O)O (H-Asp-Tyr-OMe)
5,~10-40 times as sweet as sucrose,COC(=O)C(Cc1ccccc1O)NC(=O)[C@@H](N)CC(=O)O (stereo partly specified)
6,~10-40 times as sweet as sucrose,COC(=O)[C@H](Cc1cccc(OC)c1)NC(=O)[C@@H](N)CC(=O)O (H-Asp-[Phe(3-OMe)]-OMe)
7,~10-40 times as sweet as sucrose,COC(=O)C(Cc1cccc(OC)c1)NC(=O)[C@@H](N)CC(=O)O (stereo partly specified) (H-Asp-[ξPhe(3-OMe)]-OMe)
8,~10-40 times as sweet as sucrose,COC(=O)[C@H](Cc1ccccc1O)NC(=O)[C@@H](N)CC(=O)O
